{
  "source": "paper PMC8776995",
  "about": "(Frontiers in Chemistry, 2022)",
  "key": {"wild-type EGFR": {"molecular_target": "wild-type EGFR (Homo sapiens, UniProt P00533)", "sequence (P00533 25-1210)": "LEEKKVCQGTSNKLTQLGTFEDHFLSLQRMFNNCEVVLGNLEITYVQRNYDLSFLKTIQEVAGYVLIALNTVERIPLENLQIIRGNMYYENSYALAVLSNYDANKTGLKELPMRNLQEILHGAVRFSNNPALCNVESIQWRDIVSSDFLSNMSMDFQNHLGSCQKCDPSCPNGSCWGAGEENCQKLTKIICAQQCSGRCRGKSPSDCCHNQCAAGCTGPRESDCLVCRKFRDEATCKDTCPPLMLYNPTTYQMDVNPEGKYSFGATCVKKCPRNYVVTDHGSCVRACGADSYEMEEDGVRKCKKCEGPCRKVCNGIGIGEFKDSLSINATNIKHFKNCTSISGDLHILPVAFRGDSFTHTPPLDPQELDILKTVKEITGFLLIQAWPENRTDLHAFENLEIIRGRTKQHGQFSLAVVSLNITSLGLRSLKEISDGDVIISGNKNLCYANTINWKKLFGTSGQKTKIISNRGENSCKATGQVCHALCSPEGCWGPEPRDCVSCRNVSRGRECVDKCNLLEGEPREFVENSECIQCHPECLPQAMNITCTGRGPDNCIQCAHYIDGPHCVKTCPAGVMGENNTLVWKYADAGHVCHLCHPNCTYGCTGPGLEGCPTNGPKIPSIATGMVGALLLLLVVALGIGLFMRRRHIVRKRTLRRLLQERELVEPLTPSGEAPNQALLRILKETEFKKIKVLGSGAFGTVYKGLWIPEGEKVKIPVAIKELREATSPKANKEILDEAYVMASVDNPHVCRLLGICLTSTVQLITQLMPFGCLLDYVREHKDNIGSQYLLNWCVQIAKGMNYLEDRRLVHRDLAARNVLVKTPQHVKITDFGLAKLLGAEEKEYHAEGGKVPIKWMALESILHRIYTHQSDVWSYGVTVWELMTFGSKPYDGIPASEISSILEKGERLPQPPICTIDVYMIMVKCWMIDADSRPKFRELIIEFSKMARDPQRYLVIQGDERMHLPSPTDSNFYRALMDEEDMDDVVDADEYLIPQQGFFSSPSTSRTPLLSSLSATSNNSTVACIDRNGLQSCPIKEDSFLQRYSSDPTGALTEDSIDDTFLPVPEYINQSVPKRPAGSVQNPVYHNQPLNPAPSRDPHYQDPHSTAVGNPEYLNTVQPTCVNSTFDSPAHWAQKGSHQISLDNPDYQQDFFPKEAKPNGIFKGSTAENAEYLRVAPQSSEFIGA", "test": "EGFR kinase assay (ELISA)", "settings": "for A450: raw ELISA absorbance"}, "H460 cells": {"test_system": "H460 cells", "test": "CCK-8 antiproliferation assay, H460", "settings": "for Inhibitory efficacy: H460 cells", "method": "The compounds were dissolved in DMSO to make a 20 μM stock solution and diluted to the concentration of working solutions with complete growth medium before administration.\nCells were seeded in 96-well plates: 3,000–5,000 cells/well in 100 ul. One day after seeding, the test compounds at concentration between 1.0 and 16.0 μ M or 0.1% DMSO (as control) were added to cells in triplicate. 48 h later, CCK-8 was added and incubated the plate for 1–4 h in the incubator. The absorbance at 450 nm were measured using a microplate reader (Bio-Tek)."}, "PC-9 cells": {"test_system": "PC-9 cells", "test": "CCK-8 antiproliferation assay, PC-9", "settings": "for Inhibitory efficacy: single repeats (Repeat 1-3), given as fraction"}, "A549 cells": {"test_system": "A549 cells", "test": "CCK-8 antiproliferation assay, A549", "settings": "for Inhibitory efficacy: A549 cells"}, "H1975 cells": {"test_system": "H1975 cells", "test": "CCK-8 antiproliferation assay, H1975", "settings": "for Inhibitory efficacy: H1975 cells"}, "[1]": {"settings": "4uM, given as fraction, Repeat 1-3"}, "[2]": {"settings": "8uM, given as fraction, Repeat 1-3"}, "[3]": {"settings": "16uM, given as fraction, Repeat 1-3"}},
  "note": "Several values for one entry are separate records, joined by “and”; a condition that tells them apart may be missing. Identical values can stand only once.",
  "data": [
    {"molecule": "COCCOc1cc2ncnc(Nc3cccc(-c4cn(Cc5ccccc5I)nn4)c3)c2cc1OCCOC", "note": "[e2, [6,7-Bis-(2-methoxy-ethoxy)-quinazolin-4-yl]-{3-[1-(2-iodo-benzyl)-1H-[1,2,3]triazol-4-yl]-phenyl}-amine]", "values": [
      {"measurement": "IC50", "setting": "wild-type EGFR; IC50 (μM) EGFR, ELISA, 3 μmol/L ATP", "result": 0.32, "unit": "µM"},
      {"measurement": "inhibition at 100 fM", "setting": "wild-type EGFR; concentration 0.0001 nM (reference for normalisation), one value per replicate column", "result": 0, "unit": "%"},
      {"measurement": "Inhibition", "setting": "wild-type EGFR; concentration 0.03 nM, one value per replicate column, 3e-05 µM", "result": "2.548 and 6.494"},
      {"measurement": "inhibition at 0.0003 µM", "setting": "wild-type EGFR; concentration 0.3 nM, one value per replicate column", "result": 10.8, "unit": "%"},
      {"measurement": "Inhibition", "setting": "wild-type EGFR; concentration 0.3 nM, one value per replicate column, 0.0003 µM", "result": 7.792},
      {"measurement": "inhibition at 0.003 µM", "setting": "wild-type EGFR; concentration 3 nM, one value per replicate column", "result": 31.8, "unit": "%"},
      {"measurement": "Inhibition", "setting": "wild-type EGFR; concentration 3 nM, one value per replicate column, 0.003 µM", "result": 24.6753},
      {"measurement": "inhibition at 0.03 µM", "setting": "wild-type EGFR; concentration 30 nM, one value per replicate column", "result": 31.8, "unit": "%"},
      {"measurement": "Inhibition", "setting": "wild-type EGFR; concentration 30 nM, one value per replicate column, 0.03 µM", "result": 27.2727},
      {"measurement": "inhibition at 0.3 µM", "setting": "wild-type EGFR; concentration 300 nM, one value per replicate column", "result": 49, "unit": "%"},
      {"measurement": "Inhibition", "setting": "wild-type EGFR; concentration 300 nM, one value per replicate column, 0.3 µM", "result": 35.7143},
      {"measurement": "inhibition at 3 µM", "setting": "wild-type EGFR; concentration 3000 nM, one value per replicate column", "result": 63.7, "unit": "%"},
      {"measurement": "Inhibition", "setting": "wild-type EGFR; concentration 3000 nM, one value per replicate column, 3 µM", "result": 56.4935},
      {"measurement": "inhibition at 30 µM", "setting": "wild-type EGFR; concentration 30000 nM, one value per replicate column", "result": 97.5, "unit": "%"},
      {"measurement": "Inhibition", "setting": "wild-type EGFR; concentration 30000 nM, one value per replicate column, 30 µM", "result": 98.0519},
      {"measurement": "A450", "setting": "wild-type EGFR; concentration 0.0001 nM", "result": "0.404 and 0.396"},
      {"measurement": "A450", "setting": "wild-type EGFR; concentration 0.03 nM", "result": "0.4 and 0.386"},
      {"measurement": "A450", "setting": "wild-type EGFR; concentration 0.3 nM", "result": "0.387 and 0.384"},
      {"measurement": "A450", "setting": "wild-type EGFR; concentration 3 nM", "result": "0.354 and 0.358"},
      {"measurement": "A450", "setting": "wild-type EGFR; concentration 30 nM", "result": 0.354},
      {"measurement": "A450", "setting": "wild-type EGFR; concentration 300 nM", "result": "0.327 and 0.341"},
      {"measurement": "A450", "setting": "wild-type EGFR; concentration 3000 nM", "result": "0.304 and 0.309"},
      {"measurement": "A450", "setting": "wild-type EGFR; concentration 30000 nM", "result": "0.251 and 0.245"},
      {"measurement": "Inhibitory efficacy", "setting": "H460 cells; 1uM, given as fraction, Repeat 1-3", "result": "0.124 and 0.2238"},
      {"measurement": "Inhibitory efficacy", "setting": "H460 cells; 2uM, given as fraction, Repeat 1-3", "result": "0.2881 and 0.2336"},
      {"measurement": "Inhibitory efficacy", "setting": "H460 cells; [1]", "result": "0.2321 and 0.3138"},
      {"measurement": "Inhibitory efficacy", "setting": "H460 cells; [2]", "result": "0.5164 and 0.5844"},
      {"measurement": "IC50", "setting": "H460 cells; Homo sapiens, NCI-H460, 48 h, read-out: IC50 (μM) H460, CCK-8, 48 h, average ± SD of three independent experiments", "result": "9.08 ± 2.81", "unit": "µM"},
      {"measurement": "inhibition at 1 µM", "setting": "H460 cells; Homo sapiens, NCI-H460, read-out: Inhibitory efficacy, H460 cells, 1uM, given as fraction, Repeat 1-3", "result": 11.6, "unit": "%"},
      {"measurement": "inhibition at 2 µM", "setting": "H460 cells; Homo sapiens, NCI-H460, read-out: Inhibitory efficacy, H460 cells, 2uM, given as fraction, Repeat 1-3", "result": 33.4, "unit": "%"},
      {"measurement": "inhibition at 4 µM", "setting": "H460 cells; Homo sapiens, NCI-H460, read-out: Inhibitory efficacy, H460 cells, 4uM, given as fraction, Repeat 1-3", "result": 16, "unit": "%"},
      {"measurement": "inhibition at 8 µM", "setting": "H460 cells; Homo sapiens, NCI-H460, read-out: Inhibitory efficacy, H460 cells, 8uM, given as fraction, Repeat 1-3", "result": 46.6, "unit": "%"},
      {"measurement": "melting point", "result": "93 to 96", "unit": "°C"},
      {"measurement": "IC50", "setting": "PC-9 cells; Homo sapiens, PC-9, 48 h, read-out: IC50 (μM) PC-9", "result": "11.6 ± 3.64", "unit": "µM"},
      {"measurement": "inhibition at 1 µM", "setting": "PC-9 cells; Homo sapiens, PC-9, read-out: Inhibitory efficacy, PC-9, 1uM, single repeats (Repeat 1-3), given as fraction", "result": 7.63, "unit": "%"},
      {"measurement": "inhibition at 2 µM", "setting": "PC-9 cells; Homo sapiens, PC-9, read-out: Inhibitory efficacy, PC-9, 2uM, single repeats (Repeat 1-3), given as fraction", "result": 20.6, "unit": "%"},
      {"measurement": "inhibition at 4 µM", "setting": "PC-9 cells; Homo sapiens, PC-9, read-out: Inhibitory efficacy, PC-9, 4uM, single repeats (Repeat 1-3), given as fraction", "result": 28.9, "unit": "%"},
      {"measurement": "inhibition at 8 µM", "setting": "PC-9 cells; Homo sapiens, PC-9, read-out: Inhibitory efficacy, PC-9, 8uM, single repeats (Repeat 1-3), given as fraction", "result": 36.1, "unit": "%"},
      {"measurement": "inhibition at 16 µM", "setting": "PC-9 cells; Homo sapiens, PC-9, read-out: Inhibitory efficacy, PC-9, 16uM, single repeats (Repeat 1-3), given as fraction", "result": 49.1, "unit": "%"},
      {"measurement": "Inhibitory efficacy", "setting": "PC-9 cells; PC-9, 1uM, 1 µM", "result": "0.07634 and 0.0877"},
      {"measurement": "Inhibitory efficacy", "setting": "PC-9 cells; PC-9, 2uM, 2 µM", "result": "0.1331 and 0.1085"},
      {"measurement": "Inhibitory efficacy", "setting": "PC-9 cells; PC-9, 4uM, 4 µM", "result": "0.3461 and 0.3328"},
      {"measurement": "Inhibitory efficacy", "setting": "PC-9 cells; PC-9, 8uM, 8 µM", "result": "0.365 and 0.4549"},
      {"measurement": "Inhibitory efficacy", "setting": "PC-9 cells; PC-9, 16uM, 16 µM", "result": "0.6025 and 0.6224"},
      {"measurement": "Inhibitory efficacy", "setting": "A549 cells; [1]", "result": "0.4029 and 0.476"},
      {"measurement": "Inhibitory efficacy", "setting": "A549 cells; [2]", "result": "0.4092 and 0.465"},
      {"measurement": "Inhibitory efficacy", "setting": "A549 cells; [3]", "result": "0.5413 and 0.5397"},
      {"measurement": "IC50", "setting": "A549 cells; Homo sapiens, A549, 48 h, read-out: IC50 (μM) A549, CCK-8, 48 h, average ± SD of three independent experiments", "result": "11.8 ± 1.7", "unit": "µM"},
      {"measurement": "inhibition at 4 µM", "setting": "A549 cells; Homo sapiens, A549, read-out: Inhibitory efficacy, A549 cells, 4uM, given as fraction, Repeat 1-3", "result": 29.4, "unit": "%"},
      {"measurement": "inhibition at 8 µM", "setting": "A549 cells; Homo sapiens, A549, read-out: Inhibitory efficacy, A549 cells, 8uM, given as fraction, Repeat 1-3", "result": 41.8, "unit": "%"},
      {"measurement": "inhibition at 16 µM", "setting": "A549 cells; Homo sapiens, A549, read-out: Inhibitory efficacy, A549 cells, 16uM, given as fraction, Repeat 1-3", "result": 50.4, "unit": "%"},
      {"measurement": "Inhibitory efficacy", "setting": "H1975 cells; [2]", "result": "0.3905 and 0.2825"},
      {"measurement": "Inhibitory efficacy", "setting": "H1975 cells; [3]", "result": "0.5504 and 0.4649"},
      {"measurement": "IC50", "setting": "H1975 cells; Homo sapiens, NCI-H1975, 48 h, read-out: IC50 (μM) H1975, CCK-8, 48 h, average ± SD of three independent experiments", "result": "15.7 ± 2.76", "unit": "µM"},
      {"measurement": "inhibition at 8 µM", "setting": "H1975 cells; Homo sapiens, NCI-H1975, read-out: Inhibitory efficacy, H1975 cells, 8uM, given as fraction, Repeat 1-3", "result": 37.6, "unit": "%"},
      {"measurement": "inhibition at 16 µM", "setting": "H1975 cells; Homo sapiens, NCI-H1975, read-out: Inhibitory efficacy, H1975 cells, 16uM, given as fraction, Repeat 1-3", "result": 48.4, "unit": "%"}
    ]}
  ]
}
